Measurements from US4427689A, “Clavulanic acid 9-deoxy-9-thia derivatives their preparation and use” (Beecham Group Limited, priority 1978, dated 1984).
Read-outs that look alike come from different tables or passages of the source.

What was measured:
E.coli E96 = experiment: In-vivo effect, CD50 in mice infected intraperitoneally with E.coli E96; details: Escherichia coli, E96, sc, subcutaneous at 1 and 5 hours post infection, no synergist, read-out: CD50 of amoxycillin alone
Procedure: The CD50 in mice infected intraperitoneally with E.coli E96 was determined. Amoxycillin and the synergists were dosed subcutaneously at 1 and 5 hours post infection. The synergists were used at 2 mg/kg.

Staph. Russell = experiment: MIC of ampicillin alone or in presence of compound (synergistic activity, Demonstration 1), Staph. Russell; type: cell-based; details: Staphylococcus aureus
Procedure: (§1) The minimum inhibitory concentration (MIC) of ampicillin alone or in the presence of certain compounds of the invention was determined for several strains of bacteria.

Proteus C889 = experiment: MIC of ampicillin alone or in presence of compound (synergistic activity, Demonstration 1), Proteus C889; type: cell-based
Procedure: as §1

Staph. aureus Russell = experiment: MIC of ampicillin alone or in presence of compound (synergistic activity, Demonstration 2), Staph. aureus Russell; type: cell-based; details: Staphylococcus aureus
Procedure: (§2) The MIC of ampicillin alone or in the presence of certain compounds of the invention was determined for certain Gram positive and Gram negative bacteria.

Kleb. aerogenes E70 = experiment: MIC of ampicillin alone or in presence of compound (synergistic activity, Demonstration 2), Kleb. aerogenes E70; type: cell-based; details: Klebsiella aerogenes
Procedure: as §2

E.coli JT39 = experiment: MIC of ampicillin alone or in presence of compound (synergistic activity, Demonstration 1), E.coli JT39; type: cell-based; details: Escherichia coli
Procedure: as §1

E. coli JT39 = experiment: MIC of ampicillin alone or in presence of compound (synergistic activity, Demonstration 2), E. coli JT39; type: cell-based; details: Escherichia coli
Procedure: as §2

Klebsiella E70 = experiment: MIC of ampicillin alone or in presence of compound (synergistic activity, Demonstration 1), Klebsiella E70; type: cell-based, Kleb. aerogenes; details: E70, compound alone
Procedure: as §1

[1] = compound conc. 0 μg/ml, read-out: MIC Ampicillin (alone)
[2] = ampicillin alone, read-out: MIC of ampicillin alone
[3] = compound alone, read-out: MIC, compound alone
[4] = compound alone, E. coli JT39, read-out: MIC, compound alone

CC1(C)S[C@@H]2[C@H](NC(=O)[C@H](N)c3ccc(O)cc3)C(=O)N2[C@H]1C(=O)O [Amoxycillin, amoxycillin]
ED50 (E.coli E96): > 1000 mg/kg

CC1(C)S[C@@H]2[C@H](NC(=O)[C@H](N)c3ccccc3)C(=O)N2[C@H]1C(=O)O [Ampicillin, ampicillin, reference compound]
MIC (Staph. Russell; [1]): 500 µg/mL
MIC Ampicillin (alone) (Proteus C889; compound conc. 0 μg/ml): 1000 µg/mL
MIC (Proteus C889; [1]): > 2000 µg/mL
MIC (Staph. aureus Russell; [2]): 125 to 500 µg/mL
MIC (Kleb. aerogenes E70; [2]): 500 to 2000 µg/mL
MIC (E.coli JT39; compound conc. 0 μg/ml, E.coli JT39, read-out: MIC Ampicillin (alone)): 2000 µg/mL
MIC (E. coli JT39; [2]): ≥ 2000 µg/mL

O=C1CC(SC/C=C2\O[C@@H]3CC(=O)N3[C@H]2C(=O)O)N1 (some centres unmarked) [Example 2, Sodium 9-deoxy-9-thio-(azetidin-2'-on-4'-yl) clavulanate]
MIC (Staph. Russell; [3]): 31.2 µg/mL
MIC (Proteus C889; [3]): 15 µg/mL
MIC (Staph. aureus Russell; [3]): 31.2 µg/mL
MIC (Klebsiella E70): 15 µg/mL
MIC (Kleb. aerogenes E70; [3]): 16 µg/mL
MIC (E.coli JT39; [4]): 31.2 µg/mL

O=C(NCSC/C=C1\O[C@@H]2CC(=O)N2[C@H]1C(=O)O)c1ccccc1 [Example 6, Sodium 9-deoxy-9-thio (N-benzoylaminomethyl) clavulanate]
MIC (Staph. Russell; [3]): 16 µg/mL
MIC (Proteus C889; [3]): 125 µg/mL
MIC (Staph. aureus Russell; [3]): 16 µg/mL
MIC (Klebsiella E70): 500 µg/mL
MIC (Kleb. aerogenes E70; [3]): 500 µg/mL
MIC (E.coli JT39; [4]): 250 µg/mL

O=C(O)[C@H]1/C(=C/CSCN2CCCC2=O)O[C@@H]2CC(=O)N21 [Example 8, Sodium 9-(2-oxopyrrolidin-1-ylmethylthio)-9-deoxyclavulate]
MIC (Staph. aureus Russell; [3]): 62.5 µg/mL
MIC (Kleb. aerogenes E70; [3]): 250 µg/mL
MIC (E. coli JT39; [3]): 250 µg/mL

O=C(O)[C@H]1/C(=C/CS(=O)(=O)CN2CCCC2=O)O[C@@H]2CC(=O)N21 [Example 10, Sodium 9-(2-oxopyrrolidin-1-ylmethylsulphonyl)-9-deoxyclavulanate]
MIC (Staph. aureus Russell; [3]): 31.2 µg/mL
MIC (Kleb. aerogenes E70; [3]): 62.5 µg/mL
MIC (E. coli JT39; [3]): 62.5 µg/mL

CC(NC=O)SC/C=C1\O[C@@H]2CC(=O)N2[C@H]1C(=O)O (some centres unmarked) [Example 13, Sodium 9-(1-formamidoethylthio)-9-deoxyclavulanate]
MIC (Staph. aureus Russell; [3]): 16 µg/mL
MIC (Kleb. aerogenes E70; [3]): 62.5 µg/mL
MIC (E. coli JT39; [3]): 125 µg/mL

CC(=O)NCSC/C=C1\O[C@@H]2CC(=O)N2[C@H]1C(=O)O [Example 20, Sodium 9-(acetamidomethylthio)-9-deoxyclavulanate]
MIC (Staph. aureus Russell; [3]): 4 µg/mL
MIC (Kleb. aerogenes E70; [3]): 62.5 µg/mL
MIC (E. coli JT39; [3]): 62.5 µg/mL

CC(=O)NC[S+]([O-])C/C=C1\O[C@@H]2CC(=O)N2[C@H]1C(=O)O (some centres unmarked) [Example 21, Sodium 9-(acetamidomethylsulphinyl)-9-deoxyclavulanate]
MIC (Staph. aureus Russell; [3]): 125 µg/mL
MIC (Kleb. aerogenes E70; [3]): 125 µg/mL
MIC (E. coli JT39; [3]): 62.5 µg/mL

CC(=O)NCS(=O)(=O)C/C=C1\O[C@@H]2CC(=O)N2[C@H]1C(=O)O [Example 22, Sodium 9-(acetamidomethylsuphonyl)-9-deoxyclavulanate]
MIC (Staph. aureus Russell; [3]): 62.5 µg/mL
MIC (Kleb. aerogenes E70; [3]): 62.5 µg/mL
MIC (E. coli JT39; [3]): 31.2 µg/mL
